Patent US20250302795A1, “SMALL MOLECULE COMPOUNDS WITH NEGATIVE REGULATORY EFFECTS ON Nrf2 SIGNALING [sequence] AND THEIR POTENTIAL APPLICATIONS” (Beijing Hebabiz Biotechnology Co., Inc., priority 2022, published 2025)

What was measured:
Assay type in all cases: in vivo, rat
[1] = test system: rats with nonalcoholic steatohepatitis induced by a high-fat diet and CCl4; assay: Serum biochemical indices, high-fat diet and CCl4 model; conditions: end of tenth week of administration, positive control group
Experimental: (§1) Starting from the seventh week, they received subcutaneous injections of a 30% CCl4 olive oil solution at a dosage of 0.2 ml/100 g behind their back twice per week for a total of four times. Once the model was successfully replicated, the corresponding drugs were administered orally (10 ml/kg) in each treatment group, and both the normal control group and the model group received equal volumes of a 0.5% CMC-Na solution once daily for ten consecutive weeks. Throughout the experimental period, the rats were provided with ad libitum access to food and water, while the animal chamber was maintained under controlled conditions of quietness, natural lighting, a temperature of 25±0.5° C., and a humidity level of 55±5%. The rats' body weights were measured once per week and recorded.
At the end of the tenth week of administration, all rats underwent a 16-hour fasting period following their final administration and were intraperitoneally injected with a 20% ulinastatin solution (10 ml/kg) for anesthesia. Subsequently, blood samples were collected from the abdominal aorta and allowed to stand for one hour, and then centrifuged at 4° C. for fifteen minutes at a speed of 3000 r/min. Finally, the upper serum was stored at −80° C. Following the instructions provided with the biochemical index detection kit, levels of HDL-C, LDL-C, NEFA, AST, ALT, UA, TC, TG, PCIII, IV-C LN and HA in rat serum were determined.
According to the kit instructions, the concentration of fasting plasma glucose (FPG) in serum was determined using colorimetry, while the concentration of fasting insulin (FINS) in serum was measured through radioimmunoassay.

[2] = test system: rats with nonalcoholic steatohepatitis induced by a high-fat diet and CCl4; assay: Liver indices, non-alcoholic steatohepatitis model induced by high-fat diet and CCl4; conditions: positive control group
Experimental: as §1, with “The normal control group were fed a standard diet while the other groups were exclusively fed a high-fat diet consisting of 88% basal diet +10% lard +2% cholesterol for the initial six weeks. Starting” for “Starting”
After blood sampling from the abdominal aorta of rats, the liver tissue was isolated, rinsed with normal saline solution, dried using filter paper, weighed accurately, and subsequently calculated the Liver indices: Liver indices=wet liver weight/body weight×100%.

[3] = Body weight of rats, high-fat diet + CCl4 non-alcoholic steatohepatitis model; conditions: positive control group, in g (unit assumed)
Experimental: as §1, with “The normal control group were fed a standard diet while the other groups were exclusively fed a high-fat diet consisting of 88% basal diet +10% lard +2% cholesterol for the initial six weeks. Starting” for “Starting”
The weight changes of rats in each group were compared by conducting weekly weigh-ins after the experiment.

[4] = test system: rats with non-alcoholic steatohepatitis induced by high-fat diet; assay: Liver indices, non-alcoholic steatohepatitis model induced by high-fat diet
Experimental: (§2) The normal control group was fed a standard diet for twelve weeks while the other groups were fed a high-fat diet consisting of 88% basal diet+10% lard+2% cholesterol for twelve weeks. After establishing the model, the drug groups received their respective treatments at a dosage of 10 ml/kg while the normal and model groups received an equal volume of 0.5% CMC-Na solution. The rats were provided with ad libitum access to water and food, while the animal chamber was maintained under controlled conditions of quietness, natural lighting, a temperature of 25±0.5° C., and a humidity level of 55±5%. The rats' body weights were measured once per week and recorded.
(3) Liver indices was determined by dividing the wet weight of the liver by the body weight of rats and multiplying by 100%, after liver tissue was isolated, washed with normal saline, dried using filter paper, and weighed following blood sampling from the abdominal aorta. (4) HE staining and oil red staining were performed on liver tissue samples obtained from the abdominal aorta of rats. The tissue was fixed in 10% neutral formalin, followed by embedding, slicing, dewaxing, staining, transparency treatment, and sealing using routine procedures. Microscopic examination was conducted to observe the pathological changes in rat liver tissues across different groups. Additionally, the NASH-CRN scoring system was employed to assess NAS scores. (5) Detection of Proteins Associated with Non-Alcoholic Steatohepatitis

[5] = test system: rats with non-alcoholic steatohepatitis induced by high-fat diet; assay: Serum biochemical indices, non-alcoholic steatohepatitis model induced by high-fat diet; conditions: end of 8th week of administration, positive control group
Experimental: as §2, with “After” for “The normal control group was fed a standard diet for twelve weeks while the other groups were fed a high-fat diet consisting of 88% basal diet+10% lard+2% cholesterol for twelve weeks. After”
At the end of the 8th week of administration, all rats were anesthetized with a 20% ulinastatin solution (10 ml/kg) via an intraperitoneal injection after the final administration. Subsequently, blood was collected from the abdominal aorta post-anesthesia. After standing for 1 hour, the blood was centrifuged at 4° C. and 3000 r/min for 15 minutes to obtain the upper serum fraction which was then stored at −80° C. Following the instructions provided by the biochemical index detection kit, levels of HDL-C, LDL-C, NEFA, AST, ALT, UA, TC, TG, FPG and FINS in rat serum were determined.

COC(=O)c1cc(OC)c2c(c1-c1c(CO)cc(OC)c3c1OCO3)OCO2 [Bicyclol]
HOMA-IR ([1]; FPG x FINS/22.5): 5.48 | ALT ([1]; serum): 44.39 U/L | AST ([1]; serum): 66.96 U/L | HDL-C ([1]; serum): 1.29 mmol/L | LDL-C ([1]; serum): 0.90 mmol/L | NEFA ([1]; serum): 0.77 mmol/L | TC ([1]; serum): 1.85 mmol/L | TG ([1]; serum): 0.63 mmol/L | UA ([1]; serum): 126 µmol/L | Liver Indices [2]: 3.48 ± 0.41 % | body weight ([3]; week 1): 195.81 ± 5.12 | body weight ([3]; week 2): 252.07 ± 9.62 | body weight ([3]; week 3): 293.51 ± 34.27 | body weight ([3]; week 4): 366.45 ± 19.21 | body weight ([3]; week 5): 404.78 ± 18.71 | body weight ([3]; week 6): 438.13 ± 24.81 | body weight ([3]; week 7): 471.76 ± 26.05 | body weight ([3]; week 8): 493.73 ± 28.93 | body weight ([3]; week 9): 500.11 ± 35.71 | body weight ([3]; week 10): 516.75 ± 35.02 | body weight ([3]; week 11): 483.11 ± 32.67 | body weight ([3]; week 12): 486.89 ± 36.07 | body weight ([3]; week 13): 508.69 ± 60.33 | body weight ([3]; week 14): 526.54 ± 51.97 | body weight ([3]; week 15): 536.32 ± 44.50 | body weight ([3]; week 16): 559.17 ± 38.21 | body weight ([3]; week 17): 573.81 ± 44.40 | body weight ([3]; week 18): 581.09 ± 46.08 | liver indices versus model group (in words) ([4]; NR218 at high, medium and low doses, P<0.01 or P<0.05): significant decrease compared to the model group | Liver Indices ([4]; high-fat diet model, positive control group): 3.77 ± 1.17 % | HOMA-IR ([5]; FPG x FINS/22.5): 1.04 | ALT ([5]; serum): 547.14 U/L | AST ([5]; serum): 19.65 U/L | HDL-C ([5]; serum): 1.34 mmol/L | LDL-C ([5]; serum): 0.91 mmol/L | NEFA ([5]; serum): 0.92 mmol/L | TC ([5]; serum): 2.76 mmol/L | TG ([5]; serum): 0.83 mmol/L | UA ([5]; serum): 81.3 µmol/L
